According to patent US20120015414A1, “Production of organic compounds” (priority 2010, published 2012):

Assays:
[1] = Spontaneous decarboxylation of synthetic beta-keto acid; conditions: synthetic acid from hydrogenolysis of the benzyl ester, no enzyme
OleC and OleD = target: T1, OleC and OleD (Xanthomonas campestris pv. campestris, UniProt Q8PDW5); assay: Hydrocarbon detection enzyme assay, OleC and OleD without OleA; assay type: biochemical; conditions: substrate incubated with OleC and OleD
T1 construct: His6-tag with thrombin site (implied by Ni-column purification); made in house; host or cells: E. coli One Shot BL21 (DE3) for OleD
T1 sequence (Q8PDW5 2-337, added parts left off): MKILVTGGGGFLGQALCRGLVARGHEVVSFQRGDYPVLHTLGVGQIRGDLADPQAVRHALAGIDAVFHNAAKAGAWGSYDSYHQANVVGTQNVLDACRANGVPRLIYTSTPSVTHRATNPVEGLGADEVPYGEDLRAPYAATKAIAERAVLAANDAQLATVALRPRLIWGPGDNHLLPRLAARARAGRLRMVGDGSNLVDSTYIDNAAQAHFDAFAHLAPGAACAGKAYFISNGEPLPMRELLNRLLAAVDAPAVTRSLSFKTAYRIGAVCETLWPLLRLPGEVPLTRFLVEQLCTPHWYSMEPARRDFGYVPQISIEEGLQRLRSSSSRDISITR
Experimental: (§1) Hydrocarbon Detection Enzyme Assay. […] Products were extracted with 250 μl ethyl acetate using 16-hentriacontanone ketone (Tokyo Kasei Kogyo Co., Ltd., Japan) as an internal standard. After vortexing and 5 min of gentle centrifugation, the top solvent layer was transferred to a glass vial and analyzed using a gas chromatograph equipped with a flame ionization detector HP 7890A (Hewlett Packard, Palo Alto) and mass spectrometer HP 5975C (GC-MS-FID). GC was conducted under the following conditions: helium gas, 1.75 ml/min; HP-1 ms column (100% dimethylsiloxane capillary; 30 m by 250 μm by 0.25 μm); temperature ramp, 100° C. to 320° C.; 10° C./min, hold at 320° C. for 5 min, 250° C. injection port, and split at the outlet between MS and FID. The mass spectrometer was run under the following conditions: electron impact at 70 eV and 35 μA. The flame ionization detector was set at 250° C. with hydrogen flow set at 30 ml/min, air set at 400 ml/min, and helium makeup gas set at 25 ml/min.
The identity of the compound was confirmed by the mass spectrum shown above the GC chromatogram in FIG. III-6A, with the major ion, m/z 378, representing the molecular ion.
Next, it was tested if the ketone 14-heptacosanone could also give rise to 14-heptacosene or any other discernible product.

OleA [2] = target: T2, OleA (Xanthomonas campestris pv. campestris, UniProt Q8PDX2); assay: Release of CoASH thiol (DTNB) for assay of OleA substrate range; assay type: biochemical; conditions: for reaction with OleA to release coenzyme A: incubation time in which palmitoyl-CoA reacts completely; for % of Theoretical / CoA Product: starting substrate 65 μM; for % of Theoretical: 65 μM of product is 100% of theoretical yield; for CoA Product: free coenzyme A detected with DTNB, average of triplicate determinations with standard error; for reaction stoichiometry, coenzyme A released per acyl-CoA consumed: substrate allowed to completely react
T2 construct: His-tag (N); made in house; host or cells: E. coli One Shot BL21 (DE3), pET28b+
Experimental: Detecting the Release of CoASH Thiol for Assay of OleA Substrate Range. Release of the free thiol group of CoASH was detected by the addition of 5,5′-dithio-bis-(2-nitrobenzoic acid) (DTNB) measured spectrophotometrically at 412 nm (ε412=13,600 M^−1 cm^−1) (Alexson et al. 1988, J. Biol. Chem. 263:13564-13571; Ellman et al. 1958. Arch Biochem. Biophys. 74:443-450). […] DTNB was incubated with the reaction for 2 min and quantified spectrophotometrically.
Initial Defining of Substrate Specificity and Reaction Products of OleA. Enzymes catalyzing condensation or hydrolysis reactions with acyl-CoA substrates release coenzyme A that can be assayed colorimetrically using DTNB (Alexson et al. 1988. J. Biol. Chem. 263:13564-13571; Skaff et al. 2010. Anal. Biochem. 396:288-296; Sleeman et al. 2004. J. Biol. Chem. 279:6730-6736; Yashiro et al. 1995. Biochim. Biophys. 1258:288-96). […] With purified OleA, DTNB was used to determine the stoichiometry of coenzyme A formation and to begin to discern the substrate specificity of OleA.
First, the coenzyme A product stoichiometry was determined using either myristoyl-CoA or palmitoyl-CoA and allowing the substrate to completely react. With either substrate, the reaction stoichiometry was 1.0 mole of coenzyme A released for each mole of acyl-CoA consumed. In this manner, acyl-CoA chains of different lengths were tested with OleA using a time of incubation in which palmitoyl-CoA reacts completely as described in the Methods section. Under those conditions (Table III-2) palmitoyl-CoA reacted more completely than myristoyl-CoA.

OleA [3] = target: T2, OleA; assay: GC-MS/GC-FID product analysis of OleA reactions with acyl-CoA substrates; assay type: biochemical; conditions: peak area integration
Experimental: Subsequent experiments were conducted to examine if coenzyme A was formed as a consequence of acyl-group condensation, thioester bond hydrolysis, or some mixture of the two reactions. Based on previous observations (Beller et al. 2010. Appl. Environ. Microbiol. 76:1212-1223; Sukovich et al. 2010. Appl. Environ. Microbiol. 76:3850-62; Friedman et al. 2008. International Patent WO2008/113041), it was known that long-chain ketones were the observed condensation products. In subsequent experiments in this study, it was shown that β-keto acids are the initial products and those decarboxylate quantitatively to the corresponding ketone. In this context, reaction mixtures were solvent extracted and subjected to GC-MS to identify ketones derived from condensation and/or fatty acids derived from acyl chain hydrolysis.
In this context, experiments were conducted with mixtures of fatty acyl-CoA substrates. All pairwise combinations of C10, C12, C14, C16, saturated and C16 monounsaturated (C16:1) acyl-CoA substrates were incubated, extracted, and analyzed for products by GC-MS and GC-FID. In all, 15 product mixtures were analyzed. […] Only with C12 acyl condensation and C14 plus C16:1 condensation were the major products derived from a condensation of fatty acyl chains. In the case of C14 condensations (myristoyl-CoA), the ketone 14-heptacosanone was produced at only slightly lower levels than the hydrolysis product myristic acid.

Synechococcus [4] = assay: Growth in BG11AN medium supplemented with lactic acid; assay type: cell-based
From the text: To maintain the co-culture of the cyanobacterium (Synechococcus) and the heterotroph (Shewanella), a minimal medium was established that would support growth of both Shewanella and Synechococcus. We started with the preferred medium for Synechococcus, known as BG11. […] A modified Synechococcus minimal medium, denoted here as BG11AN medium, was used and supplemented with lactic acid to test both lactate inhibition and ammonia inhibition. BG11AN has ammonium nitrate at 1.5 g/L replacing the sodium nitrate used in BG11. Shewanella grew well in BG11AN medium. The Synechococcus grew in the BG11AN medium, not as well as in BG11, but acceptably. The cultures in BG11 AN were more of a yellow green than the deep green of the BG11 culture. […] In fact, it stimulated growth at levels up to 0.5 g/L. It was concluded that the BG11AN medium can be used for co-culture of Synechococcus and Shewanella in subsequent experiments.

OleA, OleC and OleD = target: T3, OleA, OleC and OleD (Xanthomonas campestris pv. campestris, UniProt Q8PDX2); assay: Hydrocarbon detection enzyme assay, OleA, OleC and OleD; assay type: biochemical; conditions: substrate incubated with OleA
T3 construct: His-tag (N); made in house
T3 sequence (Q8PDX2 1-338): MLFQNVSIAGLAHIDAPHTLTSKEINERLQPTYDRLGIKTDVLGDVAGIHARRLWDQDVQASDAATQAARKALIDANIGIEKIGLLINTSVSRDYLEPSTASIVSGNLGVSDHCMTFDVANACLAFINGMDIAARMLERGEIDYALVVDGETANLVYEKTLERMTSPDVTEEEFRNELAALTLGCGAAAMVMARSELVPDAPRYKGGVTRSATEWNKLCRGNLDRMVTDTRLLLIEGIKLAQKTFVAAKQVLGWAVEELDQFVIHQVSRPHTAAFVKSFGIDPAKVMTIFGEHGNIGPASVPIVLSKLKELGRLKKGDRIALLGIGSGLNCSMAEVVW
Experimental: as §1
(§2) Role of OleA in olefin biosynthesis. […] Other Ole proteins were purified as described in the methods section and tested in admixture with OleA and with myristoyl-CoA as the substrate. […] The identities of the products were confirmed by mass spectrometry.

OleA and OleC = target: T4, OleA and OleC (Xanthomonas campestris pv. campestris, UniProt Q8PDX2); assay: Hydrocarbon detection enzyme assay, OleA and OleC in admixture; assay type: biochemical; conditions: substrate incubated with OleA and OleC
T4 construct: His-tag (N); made in house; host or cells: E. coli (OleA)
T4 sequence (Q8PDX2 1-338): T3 sequence (Q8PDX2 1-338)
Experimental: as §1, §2

Synechococcus [5] = assay: Effect of growth supplements of the type found in corn steep liquor on Synechococcus; assay type: cell-based; conditions: flasks supplemented
From the text: The effects of growth supplements of the type found in corn steep liquor on the growth of Synechococcus and Shewanella were examined.

SMILES	reaction with OleA to release coenzyme A (OleA [2])	% of Theoretical (OleA [2]) [%]	CoA Product (OleA [2]) [µM]	other results
CCCCCCCCCCCCCC(=O)C(CCCCCCCCCCCC)C(=O)O (racemic) [2-myristoylmyristic acid]				stability, decarboxylation to 14-heptacosanone [1]: rapid decarboxylation; products observed by GC-MS (OleC and OleD): yielded 14-heptacosanone and the expected olefinic product from head-to-head condensation, 14-heptacosene
CCCCCCCCCCCCCC(=O)CCCCCCCCCCCCC [14-heptacosanone]				products observed by GC-MS (OleC and OleD): 14-heptacosene was not detected
CC(=O)SCCNC(=O)CCNC(=O)[C@H](O)C(C)(C)COP(=O)(O)OP(=O)(O)OC[C@H]1O[C@@H](n2cnc3c(N)ncnc32)[C@H](O)[C@@H]1OP(=O)(O)O [Acetyl-CoA]	did not			
CCCCCCCCCC(=O)SCCNC(=O)CCNC(=O)[C@H](O)C(C)(C)COP(=O)(O)OP(=O)(O)OC[C@H]1O[C@@H](n2cnc3c(N)ncnc32)[C@H](O)[C@@H]1OP(=O)(O)O [Decanoyl-CoA]	undergo reaction to release coenzyme A	42	27.2 ± 1.6	Products, ketones (Cx) and fatty acids (FAx), in order of decreasing abundance (OleA [3]; second fatty acyl-CoA chain C10): FA10 > C19
CC(O)C(=O)O (centres unmarked) [Lactic acid]				level at which growth was not inhibited (Synechococcus [4]): ≤ 1 g/L; level at which growth was stimulated (Synechococcus [4]): up to 0.5 g/L
CCCCCCCCCCCC(=O)SCCNC(=O)CCNC(=O)[C@H](O)C(C)(C)COP(=O)(O)OP(=O)(O)OC[C@H]1O[C@@H](n2cnc3c(N)ncnc32)[C@H](O)[C@@H]1OP(=O)(O)O [Lauroyl-CoA]	undergo reaction to release coenzyme A	79	51.4 ± 1.9	
CCCCCCCCCCCCCC(=O)SCCNC(=O)CCNC(=O)[C@H](O)C(C)(C)COP(=O)(O)OP(=O)(O)OC[C@H]1O[C@@H](n2cnc3c(N)ncnc32)[C@H](O)[C@@H]1OP(=O)(O)O [Myristoyl-CoA]		97	63.2 ± 0.4	products observed by GC-MS (OleA, OleC and OleD): the olefin 14-heptacosene (20.4 min) was observed in addition to the peak corresponding to 14-heptacosanone; reaction stoichiometry, coenzyme A released per acyl-CoA consumed (OleA [2]): 1.0 mole of coenzyme A released for each mole of acyl-CoA consumed; products observed by GC-MS (OleA and OleC): produced only 14-heptacosanone; Products, ketones (Cx) and fatty acids (FAx), in order of decreasing abundance (OleA [3]; second fatty acyl-CoA chain C14): FA14 > C27
CCCCCCCC(=O)SCCNC(=O)CCNC(=O)[C@H](O)C(C)(C)COP(=O)(O)OP(=O)(O)OC[C@H]1O[C@@H](n2cnc3c(N)ncnc32)[C@H](O)[C@@H]1OP(=O)(O)O [Octanoyl-CoA]	undergo reaction to release coenzyme A	12	8.0 ± 2.2	
CCCCCC/C=C\CCCCCCCC(=O)SCCNC(=O)CCNC(=O)[C@H](O)C(C)(C)COP(=O)(O)OP(=O)(O)OC[C@H]1O[C@@H](n2cnc3c(N)ncnc32)[C@H](O)[C@@H]1OP(=O)(O)O [Palmitoleoyl-CoA]	undergo reaction to release coenzyme A	57	36.9 ± 0.9	Products, ketones (Cx) and fatty acids (FAx), in order of decreasing abundance (OleA [3]; second fatty acyl-CoA chain C16:1): FA16:1 > C31:2
CCCCCCCCCCCCCCCC(=O)SCCNC(=O)CCNC(=O)[C@H](O)C(C)(C)COP(=O)(O)OP(=O)(O)OC[C@H]1O[C@@H](n2cnc3c(N)ncnc32)[C@H](O)[C@@H]1OP(=O)(O)O [Palmitoyl-CoA]		100	65.0 ± 0.9	reaction stoichiometry, coenzyme A released per acyl-CoA consumed (OleA [2]): 1.0 mole of coenzyme A released for each mole of acyl-CoA consumed; Products, ketones (Cx) and fatty acids (FAx), in order of decreasing abundance (OleA [3]; second fatty acyl-CoA chain C16): FA16 > C31
CCCCCCCCCCCCCCCCCC(=O)SCCNC(=O)CCNC(=O)[C@H](O)C(C)(C)COP(=O)(O)OP(=O)(O)OC[C@H]1O[C@@H](n2cnc3c(N)ncnc32)[C@H](O)[C@@H]1OP(=O)(O)O [Stearoyl-CoA]	undergo reaction to release coenzyme A	29	18.7 ± 1.8	
N[C@@H](CCC(=O)O)C(=O)O [glutamate]				effect on growth of Synechococcus (Synechococcus [5]): slightly better growth
NC(=O)CC[C@H](N)C(=O)O [glutamine]				effect on growth of Synechococcus (Synechococcus [5]): slightly better growth
